Experimental data reported in US20250129430A1, “HIGH ATP-AFFINITY PROTEIN AS THERAPEUTIC TARGET FOR INTRACTABLE CANCER MOLECULAR SUBTYPES AND INHIBITOR THEREOF” (VeraVerse Co., Ltd., priority 2021, published 2025).

Assays:
Assay in all cases: Cell viability drug screen, 12-point dose-response AUC
Assay type in all cases: cell-based, human
AGS = details: 72 hours
Protocol: (§1) An FDA-approved small-molecule pharmacological compound (#L1300) and an anticancer compound for research (#L2000) were purchased from Selecckchem and a 10 mM solution was prepared in DMSO. A total of 1,345 compounds were tested the cell viability of the seven EMT gastric cancer cell lines.
(§2) Cells cultured for cell-based drug assay were inoculated into a 96-well white optical plate (Corning) at 5×10^3 cells per well. After 24 hours after inoculation, a 2.5 MJT (primary screen) or a half-log 12-serial diluent (secondary screen) of the pharmacological compound contained in DMSO is added to the cells with a robot using a BioMek FXp liquid processor (Beckman) to add to the cells at 50 mM. The final drug concentration in the 5 ns range and the DMSO specification control (0.5%) were calculated. The cells were then further incubated at 37° C. in a 5% CO2 incubator for 72 hours prior to measuring cell viability using the extra-GLO assay kit (Promega). The luminescent properties were measured after 15 min incubation at room temperature using a plate stacker equipped with a plate stacker. The normalized viability for the DMSO-based control was measured to generate a cell line-specific 12-point dose-response curve for each pharmacological compound, and then the area under the curve (AUC) was calculated using a trapezoidal method. […] The results of the repeated experiments were averaged to generate AUC values for each cell line for each compound.

Hs746T = details: 72 hours
Protocol: as §1, §2

KATO3 = KATO3 cells, 72 hours
Protocol: as §1, §2

MKN1 = MKN1 cells, 72 hours
Protocol: as §1, §2

MKN28 = MKN28 cells, 72 hours
Protocol: as §1, §2

MKN45 = details: 72 hours
Protocol: as §1, §2

MKN74 = MKN74 cells, 72 hours
Protocol: as §1, §2

NCC19 = NCC19 cells, 72 hours
Protocol: as §1, §2

NCC20 = NCC20 cells, 72 hours
Protocol: as §1, §2

NCC24 = NCC24 cells, 72 hours
Protocol: as §1, §2

NCC59 = NCC59 cells, 72 hours
Protocol: as §1, §2

NCI_N87 = NCI_N87 cells, 72 hours
Protocol: as §1, §2

OCUM1 = OCUM1 cells, 72 hours
Protocol: as §1, §2

SK4 = details: 72 hours
Protocol: as §1, §2

SNU16 = SNU16 cells, 72 hours
Protocol: as §1, §2

SNU1750 = details: 72 hours
Protocol: as §1, §2

SNU1967 = SNU1967 cells, 72 hours
Protocol: as §1, §2

SNU1 = SNU1 cells, 72 hours
Protocol: as §1, §2

SNU216 = details: 72 hours
Protocol: as §1, §2

SNU484 = details: 72 hours
Protocol: as §1, §2

SNU601 = SNU601 cells, 72 hours
Protocol: as §1, §2

SNU620 = SNU620 cells, 72 hours
Protocol: as §1, §2

SNU638 = SNU638 cells, 72 hours
Protocol: as §1, §2

SNU668 = details: 72 hours
Protocol: as §1, §2

SNU719 = SNU719 cells, 72 hours
Protocol: as §1, §2

YCC11 = details: 72 hours
Protocol: as §1, §2

YCC2 = YCC2 cells, 72 hours
Protocol: as §1, §2

YCC3 = YCC3 cells, 72 hours
Protocol: as §1, §2

FU97 = system: FU97; parameters: Average Area Under the Viability Curve (AUC), AUC norm value: scale not given here; details: FU97 cells, 72 hours
Protocol: Cells cultured for cell-based drug assay were inoculated into a 96-well white optical plate (Corning) at 5×10^3 cells per well. After 24 hours after inoculation, a 2.5 MJT (primary screen) or a half-log 12-serial diluent (secondary screen) of the pharmacological compound contained in DMSO is added to the cells with a robot using a BioMek FXp liquid processor (Beckman) to add to the cells at 50 mM. The final drug concentration in the 5 ns range and the DMSO specification control (0.5%) were calculated. The cells were then further incubated at 37° C. in a 5% CO2 incubator for 72 hours prior to measuring cell viability using the extra-GLO assay kit (Promega). The luminescent properties were measured after 15 min incubation at room temperature using a plate stacker equipped with a plate stacker. The normalized viability for the DMSO-based control was measured to generate a cell line-specific 12-point dose-response curve for each pharmacological compound, and then the area under the curve (AUC) was calculated using a trapezoidal method.

CC(=O)O[C@H]1C(=O)[C@@]2(C)[C@H]([C@H](OC(=O)c3ccccc3)[C@]3(O)C[C@H](OC(=O)[C@H](O)[C@@H](NC(=O)c4ccccc4)c4ccccc4)C(C)=C1C3(C)C)[C@]1(OC(C)=O)CO[C@@H]1C[C@@H]2O [Paclitaxel (Taxol), Paclitaxel]
area under the viability curve (AUC), normalized (AGS; AGS cells, 12-point dose-response): −1.831 | area under the viability curve (AUC), normalized (Hs746T; Hs746T cells, 12-point dose-response): 0.7342 | area under the viability curve (AUC), normalized (KATO3; 12-point dose-response): 5.3572 | area under the viability curve (AUC), normalized (MKN1; 12-point dose-response): −1.258 | area under the viability curve (AUC), normalized (MKN28; 12-point dose-response): −0.2731 | area under the viability curve (AUC), normalized (MKN45; MKN45 cells, 12-point dose-response): 1.473 | area under the viability curve (AUC), normalized (MKN74; 12-point dose-response): 0.186 | area under the viability curve (AUC), normalized (NCC19; 12-point dose-response): 1.902 | area under the viability curve (AUC), normalized (NCC20; 12-point dose-response): 0 | area under the viability curve (AUC), normalized (NCC24; 12-point dose-response): −1.616 | area under the viability curve (AUC), normalized (NCC59; 12-point dose-response): 3.637 | area under the viability curve (AUC), normalized (NCI_N87; 12-point dose-response): −1.013 | area under the viability curve (AUC), normalized (OCUM1; 12-point dose-response): 2.909 | area under the viability curve (AUC), normalized (SK4; SK4 cells, 12-point dose-response): −0.872 | area under the viability curve (AUC), normalized (SNU16; 12-point dose-response): −0.5105 | area under the viability curve (AUC), normalized (SNU1750; SNU1750 cells, 12-point dose-response): 0.811 | area under the viability curve (AUC), normalized (SNU1967; 12-point dose-response): 0.05016 | area under the viability curve (AUC), normalized (SNU1; 12-point dose-response): −1.778 | area under the viability curve (AUC), normalized (SNU216; SNU216 cells, 12-point dose-response): 2.148 | area under the viability curve (AUC), normalized (SNU484; SNU484 cells, 12-point dose-response): −0.3604 | area under the viability curve (AUC), normalized (SNU601; 12-point dose-response): −1.106 | area under the viability curve (AUC), normalized (SNU620; 12-point dose-response): −1.998 | area under the viability curve (AUC), normalized (SNU638; 12-point dose-response): −0.3898 | area under the viability curve (AUC), normalized (SNU668; SNU668 cells, 12-point dose-response): −0.02282 | area under the viability curve (AUC), normalized (SNU719; 12-point dose-response): 4.877 | area under the viability curve (AUC), normalized (YCC11; YCC11 cells, 12-point dose-response): −0.8302 | area under the viability curve (AUC), normalized (YCC2; 12-point dose-response): 0.5673 | area under the viability curve (AUC), normalized (YCC3; 12-point dose-response): 3.81 | area under the viability curve (AUC), normalized (FU97; 12-point dose-response): 0.989

COc1cc(N2CCC(N3CCN(C)CC3)CC2)ccc1Nc1ncc(Cl)c(Nc2ccccc2S(=O)(=O)C(C)C)n1 [TAE684 (NVP-TAE684), TAE684]
Average Area Under the Viability Curve (AUC), AUC norm value (AGS; AGS cells (non-SEM subtype)): −1.326 | Average Area Under the Viability Curve (AUC), AUC norm value (Hs746T; Hs746T cells (SEM subtype)): 1.039 | Average Area Under the Viability Curve (AUC), AUC norm value (KATO3): 0.2672 | Average Area Under the Viability Curve (AUC), AUC norm value (MKN1): 0 | Average Area Under the Viability Curve (AUC), AUC norm value (MKN28): −0.4177 | Average Area Under the Viability Curve (AUC), AUC norm value (MKN45; MKN45 cells (non-SEM subtype)): 2.601 | Average Area Under the Viability Curve (AUC), AUC norm value (MKN74): −0.04126 | Average Area Under the Viability Curve (AUC), AUC norm value (NCC19): 1.944 | Average Area Under the Viability Curve (AUC), AUC norm value (NCC20): −2.659 | Average Area Under the Viability Curve (AUC), AUC norm value (NCC24): 1.662 | Average Area Under the Viability Curve (AUC), AUC norm value (NCC59): 1.273 | Average Area Under the Viability Curve (AUC), AUC norm value (NCI_N87): 2.003 | Average Area Under the Viability Curve (AUC), AUC norm value (OCUM1): −0.2195 | Average Area Under the Viability Curve (AUC), AUC norm value (SK4; SK4 cells (SEM subtype)): −0.6572 | Average Area Under the Viability Curve (AUC), AUC norm value (SNU16): −3.18 | Average Area Under the Viability Curve (AUC), AUC norm value (SNU1750; SNU1750 cells (SEM subtype)): −0.941 | Average Area Under the Viability Curve (AUC), AUC norm value (SNU1967): −1.412 | Average Area Under the Viability Curve (AUC), AUC norm value (SNU1): −0.1185 | Average Area Under the Viability Curve (AUC), AUC norm value (SNU216; SNU216 cells (non-SEM subtype)): 0.5205 | Average Area Under the Viability Curve (AUC), AUC norm value (SNU484; SNU484 cells (SEM subtype)): −0.6182 | Average Area Under the Viability Curve (AUC), AUC norm value (SNU601): 1.062 | Average Area Under the Viability Curve (AUC), AUC norm value (SNU620): 0.4637 | Average Area Under the Viability Curve (AUC), AUC norm value (SNU638): 0.4071 | Average Area Under the Viability Curve (AUC), AUC norm value (SNU668; SNU668 cells (SEM subtype)): 1.009 | Average Area Under the Viability Curve (AUC), AUC norm value (SNU719): 1.051 | Average Area Under the Viability Curve (AUC), AUC norm value (YCC11; YCC11 cells (SEM subtype)): −1.4836 | Average Area Under the Viability Curve (AUC), AUC norm value (YCC2): −0.5512 | Average Area Under the Viability Curve (AUC), AUC norm value (YCC3): 1.708 | Average Area Under the Viability Curve (AUC), AUC norm value (FU97): −1.587
